The text below walks through data of ChEMBL document CHEMBL1201862, “PubChem BioAssay data set” (2004).

The target in test [1] is T1, Histone-lysine N-methyltransferase NSD2 (Homo sapiens, UniProt O96028).
T1 sequence (O96028 whole entry): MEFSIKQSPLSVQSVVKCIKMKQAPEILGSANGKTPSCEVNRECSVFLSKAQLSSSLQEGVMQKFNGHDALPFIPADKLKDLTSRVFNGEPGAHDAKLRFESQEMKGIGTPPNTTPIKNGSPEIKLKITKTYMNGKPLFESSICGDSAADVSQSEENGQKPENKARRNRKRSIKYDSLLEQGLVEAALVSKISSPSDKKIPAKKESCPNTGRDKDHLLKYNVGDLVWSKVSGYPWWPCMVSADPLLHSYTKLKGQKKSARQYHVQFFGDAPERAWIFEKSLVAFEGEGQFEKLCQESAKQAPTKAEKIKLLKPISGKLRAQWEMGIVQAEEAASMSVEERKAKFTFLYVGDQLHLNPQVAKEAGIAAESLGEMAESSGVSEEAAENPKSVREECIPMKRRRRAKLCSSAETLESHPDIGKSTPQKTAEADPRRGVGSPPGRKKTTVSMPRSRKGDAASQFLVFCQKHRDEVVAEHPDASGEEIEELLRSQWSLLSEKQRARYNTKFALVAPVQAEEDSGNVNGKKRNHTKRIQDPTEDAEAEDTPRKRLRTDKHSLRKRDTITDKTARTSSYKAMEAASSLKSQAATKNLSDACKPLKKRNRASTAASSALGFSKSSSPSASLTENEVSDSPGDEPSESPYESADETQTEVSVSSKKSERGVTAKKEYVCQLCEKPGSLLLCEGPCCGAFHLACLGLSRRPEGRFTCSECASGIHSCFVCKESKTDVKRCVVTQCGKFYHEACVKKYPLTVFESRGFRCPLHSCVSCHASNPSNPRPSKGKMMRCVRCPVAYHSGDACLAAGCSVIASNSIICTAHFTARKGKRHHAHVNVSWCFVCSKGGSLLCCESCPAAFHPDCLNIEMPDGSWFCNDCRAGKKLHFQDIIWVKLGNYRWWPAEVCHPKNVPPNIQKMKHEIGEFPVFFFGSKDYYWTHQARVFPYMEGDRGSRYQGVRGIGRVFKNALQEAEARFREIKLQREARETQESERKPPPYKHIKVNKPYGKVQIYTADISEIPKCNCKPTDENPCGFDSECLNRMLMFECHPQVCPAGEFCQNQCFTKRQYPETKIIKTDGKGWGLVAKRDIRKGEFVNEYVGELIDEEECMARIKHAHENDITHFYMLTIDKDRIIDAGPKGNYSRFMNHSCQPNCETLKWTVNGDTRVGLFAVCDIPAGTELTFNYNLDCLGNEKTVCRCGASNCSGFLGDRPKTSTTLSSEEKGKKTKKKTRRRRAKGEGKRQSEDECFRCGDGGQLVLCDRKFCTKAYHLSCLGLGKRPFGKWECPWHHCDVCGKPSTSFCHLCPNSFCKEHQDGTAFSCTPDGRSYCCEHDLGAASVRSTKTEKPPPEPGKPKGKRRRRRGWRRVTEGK
The class given is biochemical.

For test [2], the target named is Eukaryotic translation initiation factor 4E (Mus musculus, UniProt P63073). As to the kind of experiment: blockers of eIF4G binding by eIF4E – biochemical, TR-FRET, dose response (AID 855).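 Also: potency for disrupting eIF4E binding to eIF4GI seen as loss of FRET.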 It counts as functional.
Eukaryotic translation initiation factor 4E, sequence (P63073 whole entry): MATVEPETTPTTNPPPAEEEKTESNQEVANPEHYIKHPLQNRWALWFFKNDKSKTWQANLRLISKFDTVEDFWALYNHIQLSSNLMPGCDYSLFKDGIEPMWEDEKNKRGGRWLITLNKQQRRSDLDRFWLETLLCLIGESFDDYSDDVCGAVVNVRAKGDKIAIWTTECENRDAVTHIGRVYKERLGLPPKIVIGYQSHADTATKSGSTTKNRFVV
The target in test [3] is Induced myeloid leukemia cell differentiation protein Mcl-1 (Homo sapiens, UniProt Q07820). It counts as functional.
Induced myeloid leukemia cell differentiation protein Mcl-1, sequence (Q07820 whole entry): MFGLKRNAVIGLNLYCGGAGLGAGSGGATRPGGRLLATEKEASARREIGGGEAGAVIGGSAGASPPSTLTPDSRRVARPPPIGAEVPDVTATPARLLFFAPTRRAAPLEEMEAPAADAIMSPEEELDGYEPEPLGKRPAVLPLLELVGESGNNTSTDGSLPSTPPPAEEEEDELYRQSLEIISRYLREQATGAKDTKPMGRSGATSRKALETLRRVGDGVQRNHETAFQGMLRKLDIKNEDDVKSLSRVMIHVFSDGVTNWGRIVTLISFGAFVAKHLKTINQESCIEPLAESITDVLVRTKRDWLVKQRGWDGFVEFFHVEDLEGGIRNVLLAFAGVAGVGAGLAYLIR
Test [4] in a line: reduced cellular PGC1a acetyl-lysine signal – cell-based, cherry-picked samples, dose response (AID 720514).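 Also: potency may reflect raised or lowered acetylation signal.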 It counts as functional.
Test [5] concerns the target Paired box protein Pax-8 (Homo sapiens, UniProt Q06710). Description: PAX8 transcriptional activity inhibition in RMG-I – RMG-I cells, luciferase, cherry-pick, dose response (AID 687027).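 Also: luciferase reporter driven by Pax8 target thyroperoxidase promoter measured by SteadyGlo luminescence.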 It counts as functional, cell-based.
A short description of test [6]: HEK-293T viability loss after treatment – luminescence, T-cell screen hits, cytotoxicity control for TCR NF-kB inhibitor project, dose response (AID 489026).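 Also: cells exposed to compound about 14 hours before the viability readout.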 The class given is functional, cell-based.
Test [7] deals with FAD-linked sulfhydryl oxidase ALR (Homo sapiens, UniProt P55789). Description: ALR-catalysed DTT oxidation blockers – biochemical, H2O2 detection, luminescence, cherry-pick, dose response (AID 493248).
FAD-linked sulfhydryl oxidase ALR, sequence (P55789 whole entry): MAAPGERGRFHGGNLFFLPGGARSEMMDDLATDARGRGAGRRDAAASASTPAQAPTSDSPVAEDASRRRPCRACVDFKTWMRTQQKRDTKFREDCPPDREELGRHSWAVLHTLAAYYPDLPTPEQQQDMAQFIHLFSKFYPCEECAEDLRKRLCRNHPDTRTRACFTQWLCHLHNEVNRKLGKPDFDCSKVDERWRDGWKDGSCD
The target in test [8] is T2, Leucine aminopeptidase (Plasmodium falciparum 3D7, UniProt Q8IL11).
T2 sequence (Q8IL11 whole entry): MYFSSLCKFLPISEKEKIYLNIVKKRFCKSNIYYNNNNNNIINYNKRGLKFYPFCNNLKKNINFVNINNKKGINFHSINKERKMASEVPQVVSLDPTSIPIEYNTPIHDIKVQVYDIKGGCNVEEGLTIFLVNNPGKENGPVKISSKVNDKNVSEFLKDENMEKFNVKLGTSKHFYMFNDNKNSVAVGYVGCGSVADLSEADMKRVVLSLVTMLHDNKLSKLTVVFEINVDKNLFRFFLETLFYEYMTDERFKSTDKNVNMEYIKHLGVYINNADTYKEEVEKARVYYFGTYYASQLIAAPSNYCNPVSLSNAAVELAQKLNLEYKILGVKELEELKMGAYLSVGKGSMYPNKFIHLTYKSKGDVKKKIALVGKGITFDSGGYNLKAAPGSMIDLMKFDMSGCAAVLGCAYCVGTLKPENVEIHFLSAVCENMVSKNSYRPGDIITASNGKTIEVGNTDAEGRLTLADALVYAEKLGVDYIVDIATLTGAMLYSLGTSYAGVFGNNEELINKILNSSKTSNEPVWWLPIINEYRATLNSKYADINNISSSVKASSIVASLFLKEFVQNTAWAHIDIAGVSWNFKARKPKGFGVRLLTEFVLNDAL
Description: P. falciparum M17LAP inhibitors, primary screen, biochemical, fluorogenic H-Leu-NHMec substrate, 1536-well (AID 1619). It counts as functional.

Test [9] is described as follows: viability loss in THP-1 monocytes – THP-1 cells, cytotoxicity control for Vif-APOBEC3G degradation inhibitor project, dose response (AID 1117359). The class given is functional. The settings on record: THP-1.
In test [10] the test system is Streptococcus sp. 'group A'. Description: Streptococcus pyogenes SK(-)GAS viability under kanamycin – luminescence, BacTiterGlo, confirmation, counter-screen for streptokinase expression inhibitor project, dose response (AID 1900). It counts as functional, organism-based.
Test [11] has as its system Streptococcus. Description: GAS UMAA2166 growth inhibition – luminescence, BacTiterGlo, counter-screen for streptokinase expression inhibitor project, dose response (AID 1915).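 Also: potency for reduction of bacterial viability or growth.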 It counts as functional, organism-based.
Test [12] concerns the target T3, Streptokinase A (Streptococcus pyogenes serotype M1, UniProt P10520).
T3 sequence (P10520 whole entry): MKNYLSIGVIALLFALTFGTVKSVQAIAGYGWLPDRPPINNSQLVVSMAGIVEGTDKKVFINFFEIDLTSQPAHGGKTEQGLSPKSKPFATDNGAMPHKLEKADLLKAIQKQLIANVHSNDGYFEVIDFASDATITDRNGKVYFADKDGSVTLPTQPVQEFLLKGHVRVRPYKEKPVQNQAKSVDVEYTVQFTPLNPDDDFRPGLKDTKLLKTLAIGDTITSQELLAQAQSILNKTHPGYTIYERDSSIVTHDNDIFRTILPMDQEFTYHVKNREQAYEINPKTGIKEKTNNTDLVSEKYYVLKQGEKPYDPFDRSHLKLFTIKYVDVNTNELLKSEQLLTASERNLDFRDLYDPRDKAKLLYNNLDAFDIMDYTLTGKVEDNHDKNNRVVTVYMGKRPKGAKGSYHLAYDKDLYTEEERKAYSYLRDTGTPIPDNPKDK
As to the kind of experiment: viability-normalized secreted streptokinase activity reduction – plasminogen activation absorbance, OD405, dose response (AID 1914).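 Also: secreted streptokinase activity via plasminogen activation per viability signal from cell pellet.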 The class given is functional, Streptococcus pyogenes M1 GAS.

For test [13], the target named is Prothrombin (Homo sapiens, UniProt P00734). As to the kind of experiment: Thrombin 1536 HTS Dose Response Confirmation. [Related pubchem assays: 1046 (Thrombin 1536 HTS; hits were confirmed in this assay)]. The class given is functional.

Activity calls are given as the source filed them. Bounds are passed on as bounds.

Paired box protein Pax-8, sequence (Q06710 whole entry): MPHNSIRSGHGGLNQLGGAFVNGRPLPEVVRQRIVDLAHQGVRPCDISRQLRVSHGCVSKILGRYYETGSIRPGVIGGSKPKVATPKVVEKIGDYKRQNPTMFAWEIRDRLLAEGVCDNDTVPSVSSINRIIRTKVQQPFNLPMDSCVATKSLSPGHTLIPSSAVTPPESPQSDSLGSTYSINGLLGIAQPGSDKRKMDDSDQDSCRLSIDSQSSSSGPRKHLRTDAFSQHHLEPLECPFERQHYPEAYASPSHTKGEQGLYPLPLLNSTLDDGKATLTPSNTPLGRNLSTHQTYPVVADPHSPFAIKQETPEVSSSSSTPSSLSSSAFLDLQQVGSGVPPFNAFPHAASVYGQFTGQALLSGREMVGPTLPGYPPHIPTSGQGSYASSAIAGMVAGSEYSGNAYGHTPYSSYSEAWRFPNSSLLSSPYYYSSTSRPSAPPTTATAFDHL

On to `CCN(CC)CCNC(=O)Cc1nn(Cc2ccccc2)c(=O)c2ccccc12`, for which the AC50 in [1] is > 20 µM (inactive).

For `N#Cc1cc(-c2ccccc2)nn1-c1ccccc1`, the IC50 was > 64 µM (inactive) in test [2] and 1.44 µM (active) in [3].

As for `CNCCCCOc1ccccc1-c1ccccc1`, the AC50 in test [1] is > 20 µM (inactive).

As for `C[C@H](CO)N1C[C@H](C)[C@H](CN(C)C(=O)NC2CCCCC2)Oc2cc(C#Cc3cccc(F)c3)ccc2S1(=O)=O`, the AC50 in test [4] is 14.1 µM (active); in test [5], 6.2 µM (active).

For the compound `Oc1n[nH]c(CSCc2ccccc2Cl)n1`, in test [2], the IC50 is > 64 µM (inactive).

Regarding `COc1ccccc1-c1nnc2n1N=C(c1ccc(O)c(O)c1)CS2`, the IC50 is > 80 µM (inactive) in [6] and 39.2 µM (active) in test [8]. In addition, the AC50 was 12.4 µM (active) in test [1] and 1.97 µM (active) in test [7].

On to `COc1ccc(-c2cc(C)nc(SCC(=O)c3cccc([N+](=O)[O-])c3)n2)cc1`, for which, in test [9], the CC50 was > 40 µM (active).

On to `Cc1cc(C)c(C)c(OCCCOc2cccc3cccnc23)c1`, for which the EC50 in [10] is 13.1 µM (active); in test [11] it was 39.4 µM (active); in test [12] it was > 150 µM (not active). In [9], the cytotoxic concentration (CC50) is 15.4 µM (active).

As for `CCN(CC)S(=O)(=O)c1ccc2c(c1)c(=O)c(C(=O)NCc1ccc3c(c1)OCO3)cn2C`, the IC50 in [13] is 0.852 µM (active).

Turning to `Cc1ccc(CN(Cc2ccccc2)C(S)=NCC(=O)N2CCC3(CC2)OCCO3)o1`, in test [2], the IC50 is 50 µM (inactive).
